Measured values from ChEMBL document CHEMBL1201861, “Genomics of Drug Sensitity in Cancer screening data, Wellcome Trust Sanger Institute”.

Key:
Experiment in all cases: cells
COR-L105 = type: functional, cell-based; details: Homo sapiens;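 note: cell growth inhibition determined with a viability assay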
Description: SANGER: Inhibition of human COR-L105 cell growth in a cell viability assay.

Ca9-22 = type: functional, cell-based; details: Homo sapiens;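 note: growth inhibition of Ca9-22 cells, read out with a cell viability assay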
Description: SANGER: Inhibition of human Ca9-22 cell growth in a cell viability assay.

ChaGo-K-1 = type: functional, cell-based; details: Homo sapiens;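 note: growth inhibition of ChaGo-K-1 cells, read out with a cell viability assay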
Description: SANGER: Inhibition of human ChaGo-K-1 cell growth in a cell viability assay.

DMS-273 = type: functional, cell-based; details: Homo sapiens
Description: SANGER: Inhibition of human DMS-273 cell growth in a cell viability assay.

EB-3 = type: functional, cell-based, Homo sapiens; details: Homo sapiens, EB-3;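 note: human EB-3 cells, growth inhibition read out via a cell viability assay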
Description: SANGER: Inhibition of human EB-3 cell growth in a cell viability assay.

ESS-1 = type: functional, cell-based; details: Homo sapiens;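 note: growth inhibition of human ESS-1 cells, read out by a cell viability assay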
Description: SANGER: Inhibition of human ESS-1 cell growth in a cell viability assay.

G-361 = type: functional, cell-based; details: Homo sapiens
G-402 = type: functional, cell-based; details: Homo sapiens
Description: SANGER: Inhibition of human G-402 cell growth in a cell viability assay.

HSC-2 = type: functional, cell-based; details: Homo sapiens;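 note: growth inhibition of human HSC-2 cells, read out by a cell viability assay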
Description: SANGER: Inhibition of human HSC-2 cell growth in a cell viability assay.

HT-1376 = type: functional, cell-based; details: Homo sapiens
Description: SANGER: Inhibition of human HT-1376 cell growth in a cell viability assay.

HTC-C3 = type: functional, cell-based; details: Homo sapiens;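 note: inhibition of cell growth, read out with a cell viability assay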
Description: SANGER: Inhibition of human HTC-C3 cell growth in a cell viability assay.

HuTu80 = type: functional, cell-based, Homo sapiens, HUTU-80; details: Homo sapiens, HuTu80;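 note: growth inhibition of HuTu80 human cells, determined with a cell viability readout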
Description: SANGER: Inhibition of human HUTU-80 cell growth in a cell viability assay.

HuO-3N1 = type: functional, cell-based; details: Homo sapiens;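 note: cell viability readout used to measure how strongly compounds suppress proliferation of human HuO-3N1 cells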
Description: SANGER: Inhibition of human HuO-3N1 cell growth in a cell viability assay.

IMR-5 = type: functional, cell-based, Homo sapiens; details: Homo sapiens, IMR-5; read-out: IC50;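 note: growth inhibition of human IMR-5 cells, read out with a cell viability assay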
Description: SANGER: Inhibition of human IMR-5 cell growth in a cell viability assay.

KARPAS-422 = type: functional, cell-based, Homo sapiens; details: Homo sapiens, KARPAS-422
Description: SANGER: Inhibition of human KARPAS-422 cell growth in a cell viability assay.

KMS-12-PE = type: functional, cell-based, Homo sapiens; details: Homo sapiens, KMS-12-PE;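 note: growth inhibition of human KMS-12-PE cells, measured with a cell viability assay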
Description: SANGER: Inhibition of human KMS-12-PE cell growth in a cell viability assay.

KYSE-270 = type: functional, cell-based; details: Homo sapiens;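 note: cell growth inhibition measured with a viability assay in the human KYSE-270 line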
Description: SANGER: Inhibition of human KYSE-270 cell growth in a cell viability assay.

LB373-MEL-D = type: functional, cell-based, Homo sapiens; details: Homo sapiens, LB373-MEL-D;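 note: growth inhibition of the cell line, read out in a cell viability assay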
Description: SANGER: Inhibition of human LB373-MEL-D cell growth in a cell viability assay.

LU-165 = type: functional, cell-based, Homo sapiens; details: Homo sapiens, LU-165
Description: SANGER: Inhibition of human LU-165 cell growth in a cell viability assay.

LoVo = type: functional, cell-based; details: Homo sapiens;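 note: growth inhibition of human LoVo cells, read out with a cell viability assay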
Description: SANGER: Inhibition of human LoVo cell growth in a cell viability assay.

MC-IXC = type: functional, cell-based; details: Homo sapiens;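 note: growth inhibition of MC-IXC cells, read out with a cell viability assay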
Description: SANGER: Inhibition of human MC-IXC cell growth in a cell viability assay.

MDA-MB-231 = type: functional, cell-based; details: Homo sapiens
Description: SANGER: Inhibition of human MDA-MB-231 cell growth in a cell viability assay.

MFH-ino = type: functional, cell-based, Homo sapiens; details: Homo sapiens, MFH-ino;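 note: growth inhibition of human MFH-ino cells, read out by a cell viability assay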
Description: SANGER: Inhibition of human MFH-ino cell growth in a cell viability assay.

MKN-1 = type: functional, cell-based; details: Homo sapiens;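 note: growth inhibition of human MKN1 cells, read out by a cell viability measurement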
Description: SANGER: Inhibition of human MKN1 cell growth in a cell viability assay.

MeWo = type: functional, cell-based; details: Homo sapiens;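 note: growth inhibition of MeWo cells, determined by a cell viability readout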
Description: SANGER: Inhibition of human Mewo cell growth in a cell viability assay.

NB12 = type: functional, cell-based; details: Homo sapiens;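 note: growth inhibition of human NB12 cells, read out by a cell viability assay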
Description: SANGER: Inhibition of human NB12 cell growth in a cell viability assay.

NCI-H1755 = type: functional, cell-based; details: Homo sapiens;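 note: cell viability readout used to measure growth inhibition of NCI-H1755 cells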
Description: SANGER: Inhibition of human NCI-H1755 cell growth in a cell viability assay.

NCI-H2030 = type: functional, cell-based; details: Homo sapiens;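 note: growth inhibition of human NCI-H2030 cells, read out by a cell viability assay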
Description: SANGER: Inhibition of human NCI-H2030 cell growth in a cell viability assay.

NCI-H2228 = type: functional, cell-based; details: Homo sapiens;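 note: growth inhibition of human NCI-H2228 cells, read out by a cell viability assay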
Description: SANGER: Inhibition of human NCI-H2228 cell growth in a cell viability assay.

NCI-H2342 = type: functional, cell-based; details: Homo sapiens;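 note: growth inhibition of the cancer cell line, determined with a cell viability assay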
Description: SANGER: Inhibition of human NCI-H2342 cell growth in a cell viability assay.

NCI-H650 = type: functional, cell-based; details: Homo sapiens;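 note: growth inhibition of NCI-H650 cells, read out by a viability assay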
Description: SANGER: Inhibition of human NCI-H650 cell growth in a cell viability assay.

NCI-H716 = type: functional, cell-based, Homo sapiens; details: Homo sapiens, NCI-H716;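 note: growth inhibition of human NCI-H716 cells, measured by a cell viability assay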
Description: SANGER: Inhibition of human NCI-H716 cell growth in a cell viability assay.

NCI-H810 = type: functional, cell-based; details: Homo sapiens;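 note: IC50 reflects inhibition of cancer cell line growth, read out with a cell viability assay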
Description: SANGER: Inhibition of human NCI-H810 cell growth in a cell viability assay.

NCI-H889 = type: functional, cell-based, Homo sapiens; details: Homo sapiens, NCI-H889;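 note: cell growth inhibition of the cell line, read out with a viability assay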
Description: SANGER: Inhibition of human NCI-H889 cell growth in a cell viability assay.

OAW-28 = type: functional, cell-based; details: Homo sapiens;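 note: growth inhibition of OAW-28 cells, read out with a cell viability assay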
Description: SANGER: Inhibition of human OAW-28 cell growth in a cell viability assay.

OVCAR-5 = type: functional, cell-based; details: Homo sapiens;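 note: growth inhibition of human OVCAR-5 cells, read out with a cell viability assay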
Description: SANGER: Inhibition of human OVCAR-5 cell growth in a cell viability assay.

P31-FUJ = type: functional, cell-based, Homo sapiens; details: Homo sapiens, P31-FUJ;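 note: growth inhibition of P31-FUJ cells, read out with a viability assay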
Description: SANGER: Inhibition of human P31-FUJ cell growth in a cell viability assay.

RD = type: functional, cell-based; details: Homo sapiens
Description: SANGER: Inhibition of human RD cell growth in a cell viability assay.

SCC-25 = type: functional, cell-based; details: Homo sapiens;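 note: growth inhibition of SCC-25 cells, measured with a cell viability assay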
Description: SANGER: Inhibition of human SCC-25 cell growth in a cell viability assay.

SK-HEP1 = type: functional, cell-based, SK-HEP-1; details: Homo sapiens;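 note: cell viability readout used to quantify reduction in proliferation of human SK-HEP-1 cells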
Description: SANGER: Inhibition of human SK-HEP-1 cell growth in a cell viability assay.

SK-LU-1 = type: functional, cell-based; details: Homo sapiens;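 note: cell viability assay measuring growth inhibition of human SK-LU-1 cells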
Description: SANGER: Inhibition of human SK-LU-1 cell growth in a cell viability assay.

SK-MEL-28 = type: functional, cell-based; details: Homo sapiens;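 note: growth inhibition of human SK-MEL-28 cells, read out with a cell viability assay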
Description: SANGER: Inhibition of human SK-MEL-28 cell growth in a cell viability assay.

SNU-387 = type: functional, cell-based; details: Homo sapiens
Description: SANGER: Inhibition of human SNU-387 cell growth in a cell viability assay.

SNU-423 = type: functional, cell-based; details: Homo sapiens
Description: SANGER: Inhibition of human SNU-423 cell growth in a cell viability assay.

SW1088 = type: functional, cell-based; details: Homo sapiens;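 note: growth inhibition of human SW1088 cells, read out by a cell viability assay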
Description: SANGER: Inhibition of human SW1088 cell growth in a cell viability assay.

SW13 = type: functional, cell-based; details: Homo sapiens;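 note: IC50 is inhibition of SW13 cell growth, read out with a cell viability assay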
Description: SANGER: Inhibition of human SW13 cell growth in a cell viability assay.

SW1463 = type: functional, cell-based; details: Homo sapiens;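 note: growth inhibition of SW1463 cells, determined with a cell viability assay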
Description: SANGER: Inhibition of human SW1463 cell growth in a cell viability assay.

SW1783 = type: functional, cell-based; details: Homo sapiens;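 note: cell growth inhibition measured with a viability assay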
Description: SANGER: Inhibition of human SW1783 cell growth in a cell viability assay.

SW-620 = type: functional, cell-based; details: Homo sapiens;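 note: growth inhibition of human SW-620 cells, measured by a cell viability assay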
Description: SANGER: Inhibition of human SW620 cell growth in a cell viability assay.

CWR22R = type: functional, cell-based; details: Homo sapiens, 22Rv1;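 note: growth inhibition of 22Rv1 cells, read out with a cell viability assay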
Description: SANGER: Inhibition of human 22RV1 cell growth in a cell viability assay.

ACHN = type: functional, cell-based; details: Homo sapiens;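 note: cell viability read-out used to gauge how strongly growth of human ACHN cells is suppressed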
Description: SANGER: Inhibition of human ACHN cell growth in a cell viability assay.

BHY = type: functional, cell-based; details: Homo sapiens;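 note: cell growth inhibition read out by a viability assay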
Description: SANGER: Inhibition of human BHY cell growth in a cell viability assay.

BXPC-3 = type: functional, cell-based; details: Homo sapiens;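 note: growth inhibition of human BxPC-3 cells, read out by a cell viability assay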
Description: SANGER: Inhibition of human BxPC-3 cell growth in a cell viability assay.

CAL-72 = type: functional, cell-based; details: Homo sapiens;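 note: cell viability assay measuring inhibition of proliferation in the CAL-72 cell line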
Description: SANGER: Inhibition of human CAL-72 cell growth in a cell viability assay.

WM-115 = type: functional, cell-based; details: Homo sapiens
Description: SANGER: Inhibition of human WM-115 cell growth in a cell viability assay.

WSU-NHL = type: functional, cell-based, Homo sapiens; details: Homo sapiens, WSU-NHL;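 note: growth inhibition of human WSU-NHL cells, read out with a cell viability assay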
Description: SANGER: Inhibition of human WSU-NHL cell growth in a cell viability assay.

YT = type: functional, cell-based, Homo sapiens; details: Homo sapiens, YT
Description: SANGER: Inhibition of human YT cell growth in a cell viability assay.

CAMA-1 = type: functional, cell-based; details: Homo sapiens;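 note: growth inhibition of CAMA-1 cells, read out with a cell viability assay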
Description: SANGER: Inhibition of human CAMA-1 cell growth in a cell viability assay.

CAPAN-1 = type: functional, cell-based; details: Homo sapiens;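 note: growth suppression of CAPAN-1 cells, read out by a cell viability assay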
Description: SANGER: Inhibition of human CAPAN-1 cell growth in a cell viability assay.

CHP-212 = type: functional, cell-based; details: Homo sapiens
Description: SANGER: Inhibition of human CHP-212 cell growth in a cell viability assay.

Compound: OC[C@H](Cc1ccccc1)Nc1nc(Oc2ccc3c(c2)CCC3)nc2c1ncn2Cc1ccc(-c2ccccc2)cc1
- IC50 (COR-L105): > 10.2 µM
- IC50 (Ca9-22): > 10.2 µM
- IC50 (ChaGo-K-1): > 10.2 µM
- IC50 (DMS-273): > 10.2 µM
- IC50 (EB-3): > 10.2 µM
- IC50 (ESS-1): > 10.2 µM
- IC50 (G-361): 2.06 µM
- IC50 (G-402): > 10.2 µM
- IC50 (HSC-2): > 10.2 µM
- IC50 (HT-1376): > 10.2 µM
- IC50 (HTC-C3): > 10.2 µM
- IC50 (HuTu80): 1.31 µM
- IC50 (HuO-3N1): > 10.2 µM
- IC50 (IMR-5): 3.1 µM
- IC50 (KARPAS-422): 4.93 µM
- IC50 (KMS-12-PE): > 10.2 µM
- IC50 (KYSE-270): 1.76 µM
- IC50 (LB373-MEL-D): > 10.2 µM
- IC50 (LU-165): > 10.2 µM
- IC50 (LoVo): 4.56 µM
- IC50 (MC-IXC): > 10.2 µM
- IC50 (MDA-MB-231): > 10.2 µM
- IC50 (MFH-ino): 2.41 µM
- IC50 (MKN-1): > 10.2 µM
- IC50 (MeWo): > 10.2 µM
- IC50 (NB12): > 10.2 µM
- IC50 (NCI-H1755): > 10.2 µM
- IC50 (NCI-H2030): 5.25 µM
- IC50 (NCI-H2228): > 10.2 µM
- IC50 (NCI-H2342): 3.72 µM
- IC50 (NCI-H650): 7.39 µM
- IC50 (NCI-H716): > 10.2 µM
- IC50 (NCI-H810): 3.89 µM
- IC50 (NCI-H889): > 10.2 µM
- IC50 (OAW-28): > 10.2 µM
- IC50 (OVCAR-5): > 10.2 µM
- IC50 (P31-FUJ): > 10.2 µM
- IC50 (RD): > 10.2 µM
- IC50 (SCC-25): > 10.2 µM
- IC50 (SK-HEP1): 10.1 µM
- IC50 (SK-LU-1): > 10.2 µM
- IC50 (SK-MEL-28): > 10.2 µM
- IC50 (SNU-387): > 10.2 µM
- IC50 (SNU-423): > 10.2 µM
- IC50 (SW1088): > 10.2 µM
- IC50 (SW13): > 10.2 µM
- IC50 (SW1463): > 10.2 µM
- IC50 (SW1783): > 10.2 µM
- IC50 (SW-620): 3.16 µM
- IC50 (CWR22R): > 10.2 µM
- IC50 (ACHN): > 10.2 µM
- IC50 (BHY): 5.13 µM
- IC50 (BXPC-3): > 10.2 µM
- IC50 (CAL-72): > 10.2 µM
- IC50 (WM-115): > 10.2 µM
- IC50 (WSU-NHL): > 10.2 µM
- IC50 (YT): > 10.2 µM
- IC50 (CAMA-1): 9.65 µM
- IC50 (CAPAN-1): > 10.2 µM
- IC50 (CHP-212): > 10.2 µM
